Reference: US20170190671A1, “BIS(ARYL)CATECHOL DERIVATIVES AS HERBICIDES” (E I DU PONT DE NEMOURS AND COMPANY, priority 2014, published 2017)

What was measured:
Format in all cases: in vivo
[1] = system: johnsongrass (Sorghum halepense); test: Test C preemergence; settings: Sorghum halepense, pre-emergence, 336 h; Preemergence, 16 g ai/ha; scale 0 to 100; read-out: Plant response rating, Johnsongrass
Method in brief: (§1)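 Visual ratings (0 none to 100 complete control) were made 13 to 15 days after treatment, relative to controls. Test chemicals, formulated in a non-phytotoxic solvent mixture with surfactant, were applied in the greenhouse preemergence to seeded loam-sand soil or postemergence to plants 2 to 18 cm tall.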

[2] = system: pigweed (Amaranthus retroflexus); test: Test C preemergence; settings: Amaranthus retroflexus, pre-emergence, 336 h, scale 0 to 100, read-out: Plant response rating, Pigweed
Method in brief: as §1

[3] = system: galium (catchweed bedstraw, Galium aparine); test: Test C preemergence; settings: Galium, pre-emergence, 336 h, scale 0 to 100, read-out: Plant response rating, Galium
Method in brief: as §1

[4] = system: giant foxtail (Setaria faberii); test: Test C preemergence; settings: Setaria faberi, pre-emergence, 336 h, scale 0 to 100, read-out: Plant response rating, Foxtail, Giant
Method in brief: as §1

[5] = system: winter wheat (Triticum aestivum); test: Test C preemergence; settings: Triticum aestivum, pre-emergence, 336 h, scale 0 to 100, read-out: Plant response rating, Wheat
Method in brief: as §1

[6] = system: velvetleaf (Abutilon theophrasti); test: Test C preemergence; settings: Abutilon theophrasti, pre-emergence, scale 0 to 100, read-out: Plant response rating, Velvetleaf
Method in brief: as §1

[7] = system: blackgrass (Alopecurus myosuroides); test: Test C postemergence; settings: Alopecurus myosuroides, post-emergence, 336 h, Postemergence, scale 0 to 100, read-out: Plant response rating, Blackgrass
Method in brief: as §1

[8] = system: yellow nutsedge (Cyperus esculentus); test: Test C postemergence; settings: Cyperus, post-emergence, 336 h, Postemergence, scale 0 to 100, read-out: Plant response rating, Nutsedge, Yellow
Method in brief: as §1

[9] = system: lambsquarters (Chenopodium album); test: Test C postemergence; settings: Chenopodium album, post-emergence, 336 h, Postemergence, scale 0 to 100, read-out: Plant response rating, Lambsquarters
Method in brief: as §1

[10] = system: chickweed (common chickweed, Stellaria media); test: Test C postemergence; settings: Stellaria media, post-emergence, Postemergence, scale 0 to 100, read-out: Plant response rating, Chickweed
Method in brief: as §1

[11] = system: giant foxtail (Setaria faberii); test: Test C postemergence; settings: Setaria faberi, post-emergence, 336 h, Postemergence, scale 0 to 100, read-out: Plant response rating, Foxtail, Giant
Method in brief: as §1

[12] = system: velvetleaf (Abutilon theophrasti); test: Test C postemergence; settings: Abutilon theophrasti, post-emergence, Postemergence, scale 0 to 100, read-out: Plant response rating, Velvetleaf
Method in brief: as §1

Fc1cnc(Oc2c(F)ccc(F)c2Oc2ncc(F)cn2)nc1 [Compound 29, 2,2′-[(3,6-difluoro-1,2-phenylene)bis(oxy)]bis[5-fluoropyrimidine]]
pest or weed control at 16 g/ha [1]: 55% | pest or weed control at 31 g/ha ([2]; 31 g ai/ha, preemergence): 100% | pest or weed control at 62 g/ha ([2]; 62 g ai/ha, preemergence): 100% | pest or weed control at 125 g/ha ([2]; 125 g ai/ha, preemergence): 100% | pest or weed control at 16 g/ha ([2]; Preemergence, 16 g ai/ha): 98% | pest or weed control at 31 g/ha ([3]; 31 g ai/ha, preemergence): 100% | pest or weed control at 62 g/ha ([3]; 62 g ai/ha, preemergence): 100% | pest or weed control at 125 g/ha ([3]; 125 g ai/ha, preemergence): 100% | pest or weed control at 16 g/ha ([3]; Preemergence, 16 g ai/ha): 95% | pest or weed control at 31 g/ha ([4]; 31 g ai/ha, preemergence): 80% | pest or weed control at 62 g/ha ([4]; 62 g ai/ha, preemergence): 85% | pest or weed control at 125 g/ha ([4]; 125 g ai/ha, preemergence): 98% | pest or weed control at 16 g/ha ([4]; Preemergence, 16 g ai/ha): 75% | plant injury at 31 g/ha ([5]; 31 g ai/ha, preemergence): 5% | plant injury at 62 g/ha ([5]; 62 g ai/ha, preemergence): 35% | plant injury at 125 g/ha ([5]; 125 g ai/ha, preemergence): 60% | plant injury at 16 g/ha ([5]; Preemergence, 16 g ai/ha): 0% | pest or weed control at 31 g/ha ([6]; 31 g ai/ha, preemergence): 98% | pest or weed control at 62 g/ha ([6]; 62 g ai/ha, preemergence): 90% | pest or weed control at 125 g/ha ([6]; 125 g ai/ha, preemergence): 98% | pest or weed control at 16 g/ha ([6]; Preemergence, 16 g ai/ha): 75% | pest or weed control at 16 g/ha ([7]; 16 g ai/ha): 0% | pest or weed control at 31 g/ha ([7]; 31 g ai/ha): 0% | pest or weed control at 62 g/ha ([7]; 62 g ai/ha): 5% | pest or weed control at 125 g/ha ([7]; 125 g ai/ha): 20% | pest or weed control at 31 g/ha ([8]; 31 g ai/ha): 0% | pest or weed control at 62 g/ha ([8]; 62 g ai/ha): 0% | pest or weed control at 125 g/ha ([8]; 125 g ai/ha): 0% | pest or weed control at 16 g/ha ([9]; 16 g ai/ha): 75% | pest or weed control at 31 g/ha ([9]; 31 g ai/ha): 80% | pest or weed control at 62 g/ha ([9]; 62 g ai/ha): 85% | pest or weed control at 125 g/ha ([9]; 125 g ai/ha): 85% | pest or weed control at 16 g/ha ([10]; 16 g ai/ha): 45% | pest or weed control at 31 g/ha ([10]; 31 g ai/ha): 50% | pest or weed control at 62 g/ha ([10]; 62 g ai/ha): 50% | pest or weed control at 125 g/ha ([10]; 125 g ai/ha): 65% | pest or weed control at 16 g/ha ([11]; 16 g ai/ha): 0% | pest or weed control at 31 g/ha ([11]; 31 g ai/ha): 0% | pest or weed control at 62 g/ha ([11]; 62 g ai/ha): 5% | pest or weed control at 125 g/ha ([11]; 125 g ai/ha): 20% | pest or weed control at 31 g/ha ([12]; 31 g ai/ha): 75% | pest or weed control at 62 g/ha ([12]; 62 g ai/ha): 75% | pest or weed control at 125 g/ha ([12]; 125 g ai/ha): 80%
